Measurements from US3980794A, “Method for promoting growth of poultry with 3-(5-nitro-2-imidazolyl)pyrazoles” (Eli Lilly and Company, priority 1975, dated 1976).
Like-named read-outs stand apart in the source and are kept apart here.

Legend:
Salmonella typhimurium = assay: Control of infections caused by Salmonella typhimurium in chickens, subcutaneous (Experiment 2); format: in vivo; conditions: Salmonella enterica, sc, 144 h, 6 days, read-out: Survival Ratio (converted); for responders at 7.5 mg/kg: 7.5 mg./kg. subcutaneous; for responders at 15 mg/kg: 15 mg./kg. subcutaneous; for responders at 30 mg/kg: 30 mg./kg. subcutaneous; for responders at 60 mg/kg: 60 mg./kg. subcutaneous
Description: The efficacy of the novel compounds in the control of infections caused by Salmonella typhimurium in chickens was evaluated in the following manner.
The test was carried out using day-old chicks weighing approximately 35 g. each. The chicks were divided into groups of 5 chicks per each dosage level. A portion of the chicks received the test compound which was suspended in 0.2 ml. of polyethylene glycol 200 and administered subcutanusly in the neck. […] All the chicks were challenged with a 1:200 dilution of a culture of the organism, 0.1 ml. of the dilution being injected into each chick in the leg intramuscularly. […] The test compounds are identified in the same manner as set forth in Experiment 1.
In the chart, column 1 lists the compounds tested; column 2, the dosage of test compound in mg./kg.; and column 3, the survival ratio.

Pasteurella multocida = assay: Efficacy against Pasteurella multocida infections in mice when administered by injection (Experiment 1); format: in vivo, Swiss mice; conditions: ip; for responders at 5 mg/kg: 5.0 mg./kg. i.p.; for responders at 2.5 mg/kg: 2.5 mg./kg. i.p.; for responders at 7.5 mg/kg: 7.5 mg./kg. i.p.
Description: The efficacy of the novel compounds against Pasteurella multocida infections in mice when administered by injection was studied.
Female Swiss mice weighing from 15 to about 20 g. were used. The test compound, 5.0 mg., was weighed out and dissolved in 0.5 ml. of dimethyl sulfoxide, and this solution was added to 9.5 ml. of sodium carboxymethylcellulose suspension. Groups of five mice each were injected intraperitoneally with 0.1 ml. each of the above-prepared test composition. This preparation gave a test rate of 2.5 mg. per kilo of body weight of mouse. The compounds were tested at 2.5, 5.0, or 7.5 mg. per kilo of body weight of mouse, and the test preparations for rates of 5.0 and 7.5 mg./kg. were prepared in a similar manner. Immediately after receiving the test compound, the mice were challenged using log10 dilutions of 10^-^4, 10^-^5, 10^-^6, and 10^-^7 of a 16 to 20-hour tryptose broth culture of Pasteurella multocida at 0.1 ml. per mouse subcutaneously. Similar groups of nontreated control mice were also challenged, the challenge being administered subcutaneously. The groups of mice were observed daily for mortality and the total mortality in treated groups compared with that which occurred in the nonmedicated control groups. Each test compound is identified by the number of the example describing its preparation.
In the chart, column 1 lists the test compound; column 2, the dosage of test compound in mg./kg. of mouse body weight; column 3, the dilution of the challenge organism; and column 4, the ratio of the number of mice surviving the test at each dosage and challenge dilution to the number of mice tested at each dosage and challenge dilution, called the survival ratio.

[1] = challenge dilution 10^-^4, read-out: Survival Ratio (converted)
[2] = challenge dilution 10^-^5, read-out: Survival Ratio (converted)
[3] = challenge dilution 10^-^6, read-out: Survival Ratio (converted)

| SMILES | responders at 7.5 mg/kg (Salmonella typhimurium) | responders at 15 mg/kg (Salmonella typhimurium) | responders at 30 mg/kg (Salmonella typhimurium) | responders at 60 mg/kg (Salmonella typhimurium) | responders at 5 mg/kg (Pasteurella multocida; [1]) | responders at 5 mg/kg (Pasteurella multocida; [2]) | responders at 5 mg/kg (Pasteurella multocida; [3]) | responders at 2.5 mg/kg (Pasteurella multocida; [1]) | responders at 2.5 mg/kg (Pasteurella multocida; [2]) | responders at 2.5 mg/kg (Pasteurella multocida; [3]) | responders at 7.5 mg/kg (Pasteurella multocida; challenge dilution 10^-^4, read-out: Survival Ratio) | responders at 7.5 mg/kg (Pasteurella multocida; challenge dilution 10^-^5, read-out: Survival Ratio) | responders at 7.5 mg/kg (Pasteurella multocida; challenge dilution 10^-^6, read-out: Survival Ratio) |
| --- | --- | --- | --- | --- | --- | --- | --- | --- | --- | --- | --- | --- | --- |
| CCOC(C)=Nc1c(C#N)c(-c2ncc([N+](=O)[O-])n2C)nn1C [Compound 13, Ethyl N-[4-cyano-1-methyl-3-(1-methyl-5-nitro-2-imidazolyl)pyrazol-5-yl]acetimidate] | 53.3% | 40% | 55% | 65% |  |  |  |  |  |  |  |  |  |
| Cn1nc(-c2ncc([N+](=O)[O-])n2C)c(C#N)c1N=COCCCl [Compound 13B, 2-Chloroethyl N-[4-cyano-1-methyl-3-(1-methyl-5-nitro-2-imidazolyl)pyrazol-5-yl]formimidate] | 10% | 65% | 50% | 70% | 90% | 70% | 80% |  |  |  |  |  |  |
| CC(C)COC=Nc1c(C#N)c(-c2ncc([N+](=O)[O-])n2C)nn1C [Compound 13C, Isobutyl N-[4-cyano-1-methyl-3-(1-methyl-5-nitro-2-imidazolyl)pyrazol-5-yl]formimidate] | 0% | 46.7% | 53.3% | 66.7% | 40% | 80% | 90% | 40% | 30% | 70% | 80% | 100% | 100% |
